Data reported in patent US20100041897A1, “Process for preparing a crystalline form of candesartan cilexetil” (CHEMO IBERICA, S.A., priority 2006, published 2010).
Entries after “also recorded” stand apart in the source; their conditions may differ.

What was measured:
[1] = Accelerated stability test at 80° C., impurities determined by HPLC; assay type: physicochemical; conditions: for stability in accelerated stability test (in words): 80° C.
Protocol: In order to determine the influence of Form II on the stability of candesartan cilexetil Form I, samples with different proportions of Form II were prepared and subjected to an accelerated stability test at a temperature of 80° C. for different periods of time up to 9 days. Once the time period elapsed, the samples were analyzed by HPLC for the determination of the content of impurities, according to the method described in the Examples. Samples of candesartan cilexetil Form I containing different proportions of Form II were prepared from the products obtained in Example 2 and Preparative Example 1. The samples were exposed to an accelerated stability test at a temperature of 80° C. for different time periods up to 9 days. Once the time period has elapsed, the samples were analyzed by HPLC for the determination of the content of impurities. Impurities corresponding to the following retention times: 8.3, 10.4, 12.5, 14.1 and 16.4 minutes were identified in the HPLC chromatograms. The HPLC analysis of impurities was carried out in a HPLC system with UV detector (Waters Alliance), with a L1-type column according to US Pharmacopeia nomenclature, at a temperature of 30° C., with a flow rate of 1 ml/min, an injection volume of 10 μl, and an UV detector at 210 nm. The mobile phase was constituted by a mixture of solution A (v/v) (aqueous 0.1% v/v trifluoroacetic acid buffer) and acetonitrile. During the analysis the mobile phase contained 45% of Solution A and 55% of acetonitrile, except for the period comprised from minute 15 to minute 25 wherein a mixture of 5% Solution A and 95% acetonitrile was used. The sample was prepared dissolving 0.2 mg of the sample in 1 ml of mobile phase. The sum of the impurities refers to the sum of areas recorded in the HPLC chromatogram corresponding to the degradation impurities detected at the retention times above specified.

[2] = as above; assay type: physicochemical; conditions: product of crystallization assay from acetone/water 3:1 v/v, 80° C. for 5 to 9 days
[3] = solid sample kept at 80° C. for 9 days
[4] = solid sample kept at 80° C. for 7 days

## CCOc1nc2cccc(C(=O)OC(C)OC(=O)OC3CCCCC3)c2n1Cc1ccc(-c2ccccc2-c2nnn[nH]2)cc1 (centres unmarked) [Form I + 0.1% of Form II, candesartan cilexetil]
[1]; [3]
  Sum of impurities (% HPLC area): 0.96 % HPLC area

## CCOc1nc2cccc(C(=O)OC(C)OC(=O)OC3CCCCC3)c2n1Cc1ccc(-c2ccccc2-c2nnn[nH]2)cc1 (centres unmarked) [Form I + 10.0% of Form II, candesartan cilexetil]
[1]; [4]
  Sum of impurities (% HPLC area): 12.78 % HPLC area

## CCOc1nc2cccc(C(=O)OC(C)OC(=O)OC3CCCCC3)c2n1Cc1ccc(-c2ccccc2-c2nnn[nH]2)cc1 (centres unmarked) [Form I + 0.5% of Form II, candesartan cilexetil]
[1]; [4]
  Sum of impurities (% HPLC area): 1.46 % HPLC area

## CCOc1nc2cccc(C(=O)OC(C)OC(=O)OC3CCCCC3)c2n1Cc1ccc(-c2ccccc2-c2nnn[nH]2)cc1 (centres unmarked) [Form I + 5.0% of Form II, candesartan cilexetil]
[1]; [4]
  Sum of impurities (% HPLC area): 6.65 % HPLC area

## CCOc1nc2cccc(C(=O)OC(C)OC(=O)OC3CCCCC3)c2n1Cc1ccc(-c2ccccc2-c2nnn[nH]2)cc1 (centres unmarked) [Form I + 0.3% of Form II, candesartan cilexetil]
[1]; [3]
  Sum of impurities (% HPLC area): 1.21 % HPLC area

## CCOc1nc2cccc(C(=O)OC(C)OC(=O)OC3CCCCC3)c2n1Cc1ccc(-c2ccccc2-c2nnn[nH]2)cc1 (centres unmarked) [Form I + 2.0% of Form II, candesartan cilexetil]
[1]; [4]
  Sum of impurities (% HPLC area): 2.88 % HPLC area

## CCOc1nc2cccc(C(=O)OC(C)OC(=O)OC3CCCCC3)c2n1Cc1ccc(-c2ccccc2-c2nnn[nH]2)cc1 (centres unmarked) [Assay 4, candesartan cilexetil]
[2]; listed as 4
  Stability: Good

## CCOc1nc2cccc(C(=O)OC(C)OC(=O)OC3CCCCC3)c2n1Cc1ccc(-c2ccccc2-c2nnn[nH]2)cc1 (centres unmarked) [Assay 3, candesartan cilexetil]
[2]; listed as 3
  Stability: Poor

## CCOc1nc2cccc(C(=O)OC(C)OC(=O)OC3CCCCC3)c2n1Cc1ccc(-c2ccccc2-c2nnn[nH]2)cc1 (centres unmarked) [Example 1, candesartan cilexetil]
[2]
  Stability: Poor

## CCOc1nc2cccc(C(=O)OC(C)OC(=O)OC3CCCCC3)c2n1Cc1ccc(-c2ccccc2-c2nnn[nH]2)cc1 (centres unmarked) [Form I + 20.0% of Form II, candesartan cilexetil]
[1]; [4]
  Sum of impurities (% HPLC area): 23.20 % HPLC area

## CCOc1nc2cccc(C(=O)OC(C)OC(=O)OC3CCCCC3)c2n1Cc1ccc(-c2ccccc2-c2nnn[nH]2)cc1 (centres unmarked) [Form I (Example 2), 2-ethoxy-1-[[2′-(1H-tetrazol-5-yl)[1,1′-biphenyl]-4-yl]methyl]-1H-benzimidazole-7-carboxylic acid, 1-[[(cyclohexyloxy)carbonyl]oxy]ethyl ester]
[1]; listed as candesartan cilexetil Form I
  stability in accelerated stability test (in words): good stability; also recorded: high stability
[1]; [4]
  Sum of impurities (% HPLC area): 0.34 % HPLC area

## CCOc1nc2cccc(C(=O)OC(C)OC(=O)OC3CCCCC3)c2n1Cc1ccc(-c2ccccc2-c2nnn[nH]2)cc1 (centres unmarked) [Form II (Preparative Example 1), 2-ethoxy-1-[[2′-(1H-tetrazol-5-yl)[1,1′-biphenyl]-4-yl]methyl]-1H-benzimidazole-7-carboxylic acid, 1-[[(cyclohexyloxy)carbonyl]oxy]ethyl ester, reference compound]
[1]; 80° C. for 5 days, calculated from the areas of the HPLC chromatogram
  content of impurities: 60 % (w/w)
[1]; listed as Form II
  stability in accelerated stability test (in words): unstable; also recorded: high instability
[1]; solid sample kept at 80° C. for 5 days
  Sum of impurities (% HPLC area): 59.98 % HPLC area

## CCOc1nc2cccc(C(=O)OC(C)OC(=O)OC3CCCCC3)c2n1Cc1ccc(-c2ccccc2-c2nnn[nH]2)cc1 (centres unmarked) [Comparative Example 2, candesartan cilexetil]
[1]
  stability in accelerated stability test (in words): deficient stability

## CCOc1nc2cccc(C(=O)OC(C)OC(=O)OC3CCCCC3)c2n1Cc1ccc(-c2ccccc2-c2nnn[nH]2)cc1 (centres unmarked) [Form I + 1.0% of Form II, candesartan cilexetil]
[1]; [4]
  Sum of impurities (% HPLC area): 2.00 % HPLC area
